Results on seven molecules are retold here after ChEMBL document CHEMBL3352161, “Phorbaketals L-N, cytotoxic sesterterpenoids isolated from the marine sponge of the genus Phorbas” (Bioorg Med Chem Lett, 2014).

SMILES strings stand for the structures.

The term IC50 denotes the midpoint of a concentration-inhibition curve. High values mean weaker potency in that assay, low ones greater potency in that assay.

Common to all, as to type: functional, cell-based
Assay [1] is described as follows: Cytotoxicity against human PANC1 cells after 72 hrs by MTT assay. As to conditions: PANC-1, 72 h. (In general: Tetrazolium dyes change colour on reduction, which living cells bring about.)
Assay [2] relates to ACHN. Briefly: Cytotoxicity against human ACHN cells after 72 hrs by MTT assay.
Assay [3] concerns A498. Briefly: Cytotoxicity against human A498 cells after 72 hrs by MTT assay. As to conditions: A498, 72 h.

Take `C=C(CCC=C(C)C)[C@H](O)[C@@H]1CC(C)=C[C@]2(C=C(CO)[C@H]3CC(=O)C(C)=C[C@H]3O2)O1`: the half-maximal inhibitory concentration (IC50) in assay [1] is 50 µM; in assay [2], greater than 50 µM; in assay [3] it was 17.3 µM.

In the case of `C=C(C)[C@@H](CC/C(C)=C/[C@@H]1CC(C)=C[C@]2(C=C(CO)[C@H]3CC(=O)C(C)=C[C@H]3O2)O1)OO`, the 50% inhibitory concentration (IC50) in assay [1], in assay [2] and in assay [3] was greater than 50 µM throughout.

Turning to `C=C(CCC1OC1(C)C)[C@H](Br)[C@@H]1CC(C)=C[C@]2(C=C(CO)[C@H]3CC(=O)C(C)=C[C@H]3O2)O1` (stereo not given in full), the results for the half-maximal inhibitory concentration (IC50) in assay [1], in assay [2] and in assay [3] were 11.4 µM, 24.4 µM and 18.7 µM, respectively.

Take `CC(C)=CCC/C(C)=C/[C@@H]1CC(C)=C[C@]2(C=C(CO)[C@H]3CC(=O)C(C)=C[C@H]3O2)O1`: the results for the IC50 in assay [1], in assay [2] and in assay [3] were 13.5 µM, 3 µM and 4.4 µM, respectively.

In assay [1], `O=c1[nH]cc(F)c(=O)[nH]1` [FLUOROURACIL] registered an IC50 of 50 µM.

In turn, `CCN(CC)CCNC(=O)c1c(C)[nH]c(/C=C2\C(=O)Nc3ccc(F)cc32)c1C` [SUNITINIB MALATE] registered an IC50 in assay [2] of 2 µM.

Turning to `CO[C@H]1C[C@@H]2CC[C@@H](C)[C@@](O)(O2)C(=O)C(=O)N2CCCC[C@H]2C(=O)O[C@H]([C@H](C)C[C@@H]2CC[C@@H](OC(=O)C(C)(CO)CO)[C@H](OC)C2)CC(=O)[C@H](C)/C=C(\C)[C@@H](O)[C@@H](OC)C(=O)[C@H](C)C[C@H](C)/C=C/C=C/C=C/1C` [TEMSIROLIMUS], the half-maximal inhibitory concentration (IC50) in assay [3] turned out to be 0.35 µM.
